Measured values reported in ChEMBL document CHEMBL3112479, “Synthesis and evaluation of the antimicrobial activities of 3-((5-phenyl-1,3,4-oxadiazol-2-yl)methyl)-2-thioxothiazolidin-4-one derivatives” (2014).
Values after ≈ are worked out from the molar mass of the structure shown.

Legend:
[1] = tested on: Salmonella typhimurium; experiment: Antimicrobial activity against Salmonella typhimurium 2421 after 20 hrs by two-fold serial dilution technique; type: functional, Salmonella enterica subsp. enterica serovar Typhimurium; conditions: Salmonella enterica, 2421, 20 h
[2] = tested on: Staphylococcus aureus; experiment: Antimicrobial activity against quinolone-resistant Staphylococcus aureus clinical isolate 3519 after 20 hrs by two-fold serial dilution technique; type: functional; conditions: isolate 3519, 20 h
[3] = tested on: Salmonella typhimurium; experiment: Antimicrobial activity against Salmonella typhimurium 1926 after 20 hrs by two-fold serial dilution technique; type: functional, Salmonella enterica subsp. enterica serovar Typhimurium; conditions: Salmonella enterica, 1926, 20 h
[4] = tested on: Staphylococcus aureus; experiment: Antimicrobial activity against Staphylococcus aureus RN4220 after 20 hrs by two-fold serial dilution technique; type: functional; conditions: RN4220, 20 h
[5] = tested on: Staphylococcus aureus; experiment: Antimicrobial activity against quinolone-resistant Staphylococcus aureus clinical isolate 3505 after 20 hrs by two-fold serial dilution technique; type: functional; conditions: isolate 3505, 20 h
[6] = tested on: Staphylococcus aureus; experiment: Antimicrobial activity against Staphylococcus aureus 503 after 20 hrs by two-fold serial dilution technique; type: functional; conditions: Staphylococcus aureus, 503, 20 h
[7] = tested on: Pseudomonas aeruginosa; experiment: Antimicrobial activity against Pseudomonas aeruginosa 2004 after 20 hrs by two-fold serial dilution technique; type: functional; conditions: Pseudomonas aeruginosa, 2004, 20 h
[8] = tested on: Candida albicans; experiment: Antimicrobial activity against Candida albicans 7535 after 20 hrs by two-fold serial dilution technique; type: functional; conditions: Candida albicans, 7535, 20 h
[9] = tested on: Staphylococcus aureus; experiment: Antimicrobial activity against Staphylococcus aureus 209 after 20 hrs by two-fold serial dilution technique; type: functional; conditions: Staphylococcus aureus, 209, 20 h
[10] = tested on: Pseudomonas aeruginosa; experiment: Antimicrobial activity against Pseudomonas aeruginosa 2742 after 20 hrs by two-fold serial dilution technique; type: functional; conditions: Pseudomonas aeruginosa, 2742, 20 h
[11] = tested on: Staphylococcus aureus; experiment: Antimicrobial activity against methicillin-resistant Staphylococcus aureus clinical isolate 3167 after 20 hrs by two-fold serial dilution technique; type: functional; conditions: isolate 3167, 20 h
[12] = tested on: Escherichia coli; experiment: Antimicrobial activity against Escherichia coli CCARM 1356 after 20 hrs by two-fold serial dilution technique; type: functional; conditions: CCARM 1356, 20 h
[13] = tested on: Streptococcus mutans; experiment: Antimicrobial activity against Streptococcus mutans 3065 after 20 hrs by two-fold serial dilution technique; type: functional; conditions: Streptococcus mutans, 3065, 20 h
[14] = tested on: Escherichia coli; experiment: Antimicrobial activity against Escherichia coli KCTC 1924 after 20 hrs by two-fold serial dilution technique; type: functional; conditions: KCTC 1924, 20 h
[15] = tested on: Staphylococcus aureus; experiment: Antimicrobial activity against methicillin-resistant Staphylococcus aureus clinical isolate 3506 after 20 hrs by two-fold serial dilution technique; type: functional; conditions: isolate 3506, 20 h

| SMILES | MIC [1] | MIC [2] | MIC [3] | MIC [4] | MIC [5] | MIC [6] | MIC [7] | MIC [8] | MIC [9] | MIC [10] | MIC [11] | MIC [12] | MIC [13] | MIC [14] | MIC [15] |
| --- | --- | --- | --- | --- | --- | --- | --- | --- | --- | --- | --- | --- | --- | --- | --- |
| O=C1CSC(=S)N1Cc1nnc(-c2ccccc2Cl)o1 | 64 µg/mL (≈ 196 µM) | 32 µg/mL (≈ 98.2 µM) | 32 µg/mL (≈ 98.2 µM) | 32 µg/mL (≈ 98.2 µM) | 32 µg/mL (≈ 98.2 µM) | 32 µg/mL (≈ 98.2 µM) | > 128 µg/mL | 64 µg/mL (≈ 196 µM) | 16 µg/mL (≈ 49.1 µM) | > 128 µg/mL | 32 µg/mL (≈ 98.2 µM) | > 128 µg/mL | 16 µg/mL (≈ 49.1 µM) | 16 µg/mL (≈ 49.1 µM) | 32 µg/mL (≈ 98.2 µM) |
| O=C1CSC(=S)N1Cc1nnc(-c2cccc(Cl)c2)o1 | 64 µg/mL (≈ 196 µM) | 32 µg/mL (≈ 98.2 µM) | 32 µg/mL (≈ 98.2 µM) | 16 µg/mL (≈ 49.1 µM) | 32 µg/mL (≈ 98.2 µM) | 32 µg/mL (≈ 98.2 µM) | > 128 µg/mL | 32 µg/mL (≈ 98.2 µM) | 16 µg/mL (≈ 49.1 µM) | > 128 µg/mL | 32 µg/mL (≈ 98.2 µM) | > 128 µg/mL | 16 µg/mL (≈ 49.1 µM) | 16 µg/mL (≈ 49.1 µM) | 32 µg/mL (≈ 98.2 µM) |
| O=C1CSC(=S)N1[C@@H](Cc1ccccc1)c1nnc(-c2cccc(Cl)c2)o1 | > 128 µg/mL | 8 µg/mL (≈ 19.2 µM) | > 128 µg/mL | 8 µg/mL (≈ 19.2 µM) | 8 µg/mL (≈ 19.2 µM) | > 64 µg/mL | > 128 µg/mL | > 64 µg/mL | > 64 µg/mL | > 128 µg/mL | 4 µg/mL (≈ 9.62 µM) | > 128 µg/mL | 4 µg/mL (≈ 9.62 µM) | > 128 µg/mL | 8 µg/mL (≈ 19.2 µM) |
| Cc1cccc(-c2nnc([C@H](Cc3ccccc3)N3C(=O)/C(=C/c4ccc(C(=O)O)cc4)SC3=S)o2)c1 | > 128 µg/mL | 4 µg/mL (≈ 7.58 µM) | > 128 µg/mL | 2 µg/mL (≈ 3.79 µM) | 2 µg/mL (≈ 3.79 µM) | > 64 µg/mL | > 128 µg/mL | > 64 µg/mL | > 64 µg/mL | > 128 µg/mL | 2 µg/mL (≈ 3.79 µM) | > 128 µg/mL | 4 µg/mL (≈ 7.58 µM) | > 128 µg/mL | 4 µg/mL (≈ 7.58 µM) |
| O=C(O)c1ccc(/C=C2\SC(=S)N([C@@H](Cc3ccccc3)c3nnc(-c4cccc(Cl)c4)o3)C2=O)cc1 | > 128 µg/mL | 4 µg/mL (≈ 7.3 µM) | > 128 µg/mL | 2 µg/mL (≈ 3.65 µM) | 2 µg/mL (≈ 3.65 µM) | > 64 µg/mL | > 128 µg/mL | > 64 µg/mL | > 64 µg/mL | > 128 µg/mL | 2 µg/mL (≈ 3.65 µM) | > 128 µg/mL | 2 µg/mL (≈ 3.65 µM) | > 128 µg/mL | 4 µg/mL (≈ 7.3 µM) |
| Cc1cccc(-c2nnc([C@H](Cc3ccccc3)N3C(=O)CSC3=S)o2)c1 | > 128 µg/mL | 8 µg/mL (≈ 20.2 µM) | > 128 µg/mL | 8 µg/mL (≈ 20.2 µM) | 8 µg/mL (≈ 20.2 µM) | > 64 µg/mL | > 128 µg/mL | > 64 µg/mL | > 64 µg/mL | > 128 µg/mL | 8 µg/mL (≈ 20.2 µM) | > 128 µg/mL | 4 µg/mL (≈ 10.1 µM) | > 128 µg/mL | 8 µg/mL (≈ 20.2 µM) |
| COc1c(N2CCNC(C)C2)c(F)cc2c(=O)c(C(=O)O)cn(C3CC3)c12 (stereo not given) [GATIFLOXACIN] | 0.5 µg/mL (≈ 1.33 µM) | 4 µg/mL (≈ 10.7 µM) | 2 µg/mL (≈ 5.33 µM) | 0.25 µg/mL (≈ 0.666 µM) | 8 µg/mL (≈ 21.3 µM) | 4 µg/mL (≈ 10.7 µM) | 1 µg/mL (≈ 2.66 µM) | 0.5 µg/mL (≈ 1.33 µM) | 2 µg/mL (≈ 5.33 µM) | 1 µg/mL (≈ 2.66 µM) | 2 µg/mL (≈ 5.33 µM) | 16 µg/mL (≈ 42.6 µM) | 0.5 µg/mL (≈ 1.33 µM) | 2 µg/mL (≈ 5.33 µM) | 2 µg/mL (≈ 5.33 µM) |
| O=C1CSC(=S)N1Cc1nnc(-c2ccc(Br)cc2)o1 | 128 µg/mL (≈ 346 µM) | 64 µg/mL (≈ 173 µM) | 64 µg/mL (≈ 173 µM) | 64 µg/mL (≈ 173 µM) | 64 µg/mL (≈ 173 µM) | 64 µg/mL (≈ 173 µM) | > 128 µg/mL | 64 µg/mL (≈ 173 µM) | 64 µg/mL (≈ 173 µM) | > 128 µg/mL | 64 µg/mL (≈ 173 µM) | > 128 µg/mL | 16 µg/mL (≈ 43.2 µM) | 64 µg/mL (≈ 173 µM) | 64 µg/mL (≈ 173 µM) |
| O=C1CSC(=S)N1[C@@H](Cc1ccccc1)c1nnc(-c2ccccc2)o1 | > 128 µg/mL | 16 µg/mL (≈ 41.9 µM) | > 128 µg/mL | 16 µg/mL (≈ 41.9 µM) | 16 µg/mL (≈ 41.9 µM) | > 64 µg/mL | > 128 µg/mL | > 64 µg/mL | > 64 µg/mL | > 128 µg/mL | 16 µg/mL (≈ 41.9 µM) | > 128 µg/mL | 8 µg/mL (≈ 21 µM) | > 128 µg/mL | 16 µg/mL (≈ 41.9 µM) |
| Cc1ccc(-c2nnc(CN3C(=O)CSC3=S)o2)cc1 | 128 µg/mL (≈ 419 µM) | 64 µg/mL (≈ 210 µM) | 64 µg/mL (≈ 210 µM) | 64 µg/mL (≈ 210 µM) | 64 µg/mL (≈ 210 µM) | 64 µg/mL (≈ 210 µM) | > 128 µg/mL | 64 µg/mL (≈ 210 µM) | 64 µg/mL (≈ 210 µM) | > 128 µg/mL | 64 µg/mL (≈ 210 µM) | > 128 µg/mL | 64 µg/mL (≈ 210 µM) | 64 µg/mL (≈ 210 µM) | 64 µg/mL (≈ 210 µM) |
| O=C1CSC(=S)N1Cc1nnc(-c2ccccc2Br)o1 | 128 µg/mL (≈ 346 µM) | 32 µg/mL (≈ 86.4 µM) | 64 µg/mL (≈ 173 µM) | 32 µg/mL (≈ 86.4 µM) | 32 µg/mL (≈ 86.4 µM) | 64 µg/mL (≈ 173 µM) | > 128 µg/mL | 64 µg/mL (≈ 173 µM) | 16 µg/mL (≈ 43.2 µM) | > 128 µg/mL | 16 µg/mL (≈ 43.2 µM) | > 128 µg/mL | 16 µg/mL (≈ 43.2 µM) | 16 µg/mL (≈ 43.2 µM) | 32 µg/mL (≈ 86.4 µM) |
| Cc1cccc(-c2nnc(CN3C(=O)CSC3=S)o2)c1 | 128 µg/mL (≈ 419 µM) | 32 µg/mL (≈ 105 µM) | 64 µg/mL (≈ 210 µM) | 32 µg/mL (≈ 105 µM) | 32 µg/mL (≈ 105 µM) | 32 µg/mL (≈ 105 µM) | > 128 µg/mL | 64 µg/mL (≈ 210 µM) | 16 µg/mL (≈ 52.4 µM) | > 128 µg/mL | 32 µg/mL (≈ 105 µM) | > 128 µg/mL | 8 µg/mL (≈ 26.2 µM) | 16 µg/mL (≈ 52.4 µM) | 32 µg/mL (≈ 105 µM) |
